Experimental findings from ChEMBL document CHEMBL1201862, “PubChem BioAssay data set” (2004) are described below.

Activity calls are given as the source filed them.

In general, AC50 refers to the midpoint of the concentration-response curve, whichever way the signal moves. As a reminder, the EC50 is the concentration that produces a half-maximal response. The IC50 is the concentration at which inhibition is half-maximal.

Data set [1] has as its target Cytochrome P450 2D6 (Homo sapiens, UniProt P10635).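 Also: CYP2D6 member of a cytochrome P450 panel assay.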
In data set [2] the test system is Escherichia coli. The data set can be described thus: microbe, parasite or virus in culture.
Data set [3] can be described thus: microbe, parasite or virus in culture. It counts as functional. Particulars: Mycobacterium tuberculosis.
Data set [4] deals with Escherichia coli. As to the kind of experiment: microbe, parasite or virus in culture. The source holds these as a separate data set.
The target in data set [5] is T1, Oxysterols receptor LXR-beta (Homo sapiens, UniProt P55055).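 Also: agonist activity at LXR measured by a cell-based luminescence readout across a dose range, run as a counterscreen for daf-12 agonists; HEK293 cells with Gal4-LXR fusion and GAL4-driven luciferase reporter; potency for activation of Gal4-LXR reporter so compounds are agonists.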
T1 sequence (P55055 whole entry): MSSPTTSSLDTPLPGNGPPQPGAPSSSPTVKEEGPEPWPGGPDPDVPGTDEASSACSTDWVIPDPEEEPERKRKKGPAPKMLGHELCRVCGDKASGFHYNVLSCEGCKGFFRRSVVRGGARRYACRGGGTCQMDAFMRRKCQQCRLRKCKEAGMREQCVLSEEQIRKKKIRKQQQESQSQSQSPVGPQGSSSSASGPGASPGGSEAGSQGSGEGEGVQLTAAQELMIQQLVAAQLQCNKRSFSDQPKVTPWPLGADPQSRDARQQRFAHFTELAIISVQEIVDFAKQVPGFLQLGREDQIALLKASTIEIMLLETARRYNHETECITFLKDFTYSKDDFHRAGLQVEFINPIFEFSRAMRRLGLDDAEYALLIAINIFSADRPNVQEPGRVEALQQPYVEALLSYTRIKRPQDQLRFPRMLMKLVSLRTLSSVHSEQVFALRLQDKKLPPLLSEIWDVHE
Type of data set: functional, cell-based.

A short description of data set [6]: Luminescence Cell-Based Dose Response HTS to Identify Activators of Luciferase Translation or Activity in H4 […] Cells. [Related pubchem assays: 1829 (Project Summary), 1814 (Primary HTS)]. It counts as functional.
The subject of data set [7] is HeLa. The data set can be described thus: HeLa cell cytotoxicity, dose response, cytotoxicity control for MITF activator project, CellTiter-Glo luminescence, cherry-pick samples (AID 540259). Type of data set: functional, cell-based. As to conditions: Homo sapiens. On the technique in general: In ATP-based viability assays light output follows the ATP content of the culture.

Data set [8] addresses Intestinal-type alkaline phosphatase (Mus musculus, UniProt P24822). The data set can be described thus: PubChem AID 488785. Type of data set: functional.
For data set [9], the target named is Intestinal-type alkaline phosphatase (Homo sapiens, UniProt P09923). As to the kind of experiment: inhibition of human intestinal alkaline phosphatase – biochemical, dose response (AID 488876). Type of data set: functional.
Chain of Intestinal-type alkaline phosphatase (Homo sapiens, UniProt P09923) (P09923 whole entry): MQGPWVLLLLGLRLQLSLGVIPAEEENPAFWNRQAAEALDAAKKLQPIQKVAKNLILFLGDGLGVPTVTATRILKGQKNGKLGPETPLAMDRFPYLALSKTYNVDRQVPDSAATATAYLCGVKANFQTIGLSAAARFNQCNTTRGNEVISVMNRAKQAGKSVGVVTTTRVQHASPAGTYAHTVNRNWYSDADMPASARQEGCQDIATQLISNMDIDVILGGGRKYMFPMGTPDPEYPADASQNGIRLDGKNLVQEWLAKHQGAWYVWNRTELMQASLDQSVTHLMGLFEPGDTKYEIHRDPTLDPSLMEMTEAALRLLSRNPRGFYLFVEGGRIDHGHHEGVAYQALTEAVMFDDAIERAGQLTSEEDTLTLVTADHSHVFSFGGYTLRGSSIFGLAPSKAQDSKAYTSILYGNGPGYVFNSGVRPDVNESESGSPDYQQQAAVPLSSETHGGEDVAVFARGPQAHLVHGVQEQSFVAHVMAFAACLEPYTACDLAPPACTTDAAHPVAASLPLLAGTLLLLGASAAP
Data set [10] addresses T2, Alkaline phosphatase, tissue-nonspecific isozyme (Homo sapiens, UniProt P05186).
T2 sequence (P05186 whole entry): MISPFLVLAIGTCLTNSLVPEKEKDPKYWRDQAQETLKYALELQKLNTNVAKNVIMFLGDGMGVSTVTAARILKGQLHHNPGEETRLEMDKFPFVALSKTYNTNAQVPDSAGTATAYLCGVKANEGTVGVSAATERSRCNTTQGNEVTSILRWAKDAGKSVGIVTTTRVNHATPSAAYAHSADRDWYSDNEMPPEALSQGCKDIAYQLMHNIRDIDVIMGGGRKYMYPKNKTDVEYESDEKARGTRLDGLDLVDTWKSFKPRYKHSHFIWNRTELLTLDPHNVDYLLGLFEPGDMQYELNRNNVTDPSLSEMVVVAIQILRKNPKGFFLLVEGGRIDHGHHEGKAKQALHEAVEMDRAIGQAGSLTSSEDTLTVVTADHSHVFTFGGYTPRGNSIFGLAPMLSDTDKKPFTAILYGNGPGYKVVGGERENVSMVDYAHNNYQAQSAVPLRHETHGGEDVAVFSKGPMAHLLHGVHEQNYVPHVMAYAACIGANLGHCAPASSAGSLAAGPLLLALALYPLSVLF
The data set can be described thus: TNAP enzyme inhibition by screening hits, dose response, selectivity assay for mouse IAP inhibitor project, biochemical, human TNAP, uHTS hits (AID 488906). It counts as functional.

The target of data set [11] is T3, Streptokinase A (Streptococcus pyogenes serotype M1, UniProt P10520).
T3 sequence (P10520 whole entry): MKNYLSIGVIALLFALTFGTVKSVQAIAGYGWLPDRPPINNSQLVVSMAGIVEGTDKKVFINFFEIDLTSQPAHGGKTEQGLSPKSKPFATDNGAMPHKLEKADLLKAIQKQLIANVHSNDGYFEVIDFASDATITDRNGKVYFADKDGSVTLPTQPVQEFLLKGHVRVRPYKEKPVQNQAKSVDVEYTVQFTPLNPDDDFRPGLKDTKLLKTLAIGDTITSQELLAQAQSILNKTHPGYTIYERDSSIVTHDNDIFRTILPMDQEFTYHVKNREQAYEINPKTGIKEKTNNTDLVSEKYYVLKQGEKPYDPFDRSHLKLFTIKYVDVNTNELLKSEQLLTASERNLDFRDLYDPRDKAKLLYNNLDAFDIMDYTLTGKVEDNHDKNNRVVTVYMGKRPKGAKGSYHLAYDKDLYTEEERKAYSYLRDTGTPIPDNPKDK
The data set can be described thus: S. pyogenes streptokinase expression inhibitors, potency, dose response, plasminogen activation absorbance, OD405 (AID 1914).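 Also: secreted streptokinase activity via plasminogen activation per viability signal from cell pellet.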 It counts as functional, Streptococcus pyogenes M1 GAS.

Data set [12] addresses Phosphomannomutase 2 (Homo sapiens, UniProt O15305). The data set can be described thus: Counter screen SAR assay for PMM2 inhibitors via a fluorescence intensity assay. [Related pubchem assays (depositor defined):AID1545, AID1574]. In general terms: Counterscreens check selectivity or assay interference.
Data set [13] deals with T4, Mannose-6-phosphate isomerase (Homo sapiens, UniProt P34949).
T4 sequence (P34949 whole entry): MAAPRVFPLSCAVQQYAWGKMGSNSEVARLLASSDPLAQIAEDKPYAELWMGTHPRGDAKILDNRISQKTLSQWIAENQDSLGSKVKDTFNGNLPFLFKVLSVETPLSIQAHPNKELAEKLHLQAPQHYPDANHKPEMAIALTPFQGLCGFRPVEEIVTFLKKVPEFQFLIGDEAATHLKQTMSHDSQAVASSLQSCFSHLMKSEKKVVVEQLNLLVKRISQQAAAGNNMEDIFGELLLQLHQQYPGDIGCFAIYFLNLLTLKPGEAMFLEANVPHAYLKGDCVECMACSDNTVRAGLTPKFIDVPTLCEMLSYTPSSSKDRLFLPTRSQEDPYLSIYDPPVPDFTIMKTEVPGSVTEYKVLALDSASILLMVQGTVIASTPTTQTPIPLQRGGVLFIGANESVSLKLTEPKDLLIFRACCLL
As to the kind of experiment: PMI enzyme inhibitors, confirmation, biochemical, fluorescence intensity (AID 1535).

The target of data set [14] is T5, Cytochrome P450 1A2 (Homo sapiens, UniProt P05177).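 Also: PubChem cytochrome P450 panel assay, CYP1A2 panel member.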
T5 sequence (P05177 whole entry): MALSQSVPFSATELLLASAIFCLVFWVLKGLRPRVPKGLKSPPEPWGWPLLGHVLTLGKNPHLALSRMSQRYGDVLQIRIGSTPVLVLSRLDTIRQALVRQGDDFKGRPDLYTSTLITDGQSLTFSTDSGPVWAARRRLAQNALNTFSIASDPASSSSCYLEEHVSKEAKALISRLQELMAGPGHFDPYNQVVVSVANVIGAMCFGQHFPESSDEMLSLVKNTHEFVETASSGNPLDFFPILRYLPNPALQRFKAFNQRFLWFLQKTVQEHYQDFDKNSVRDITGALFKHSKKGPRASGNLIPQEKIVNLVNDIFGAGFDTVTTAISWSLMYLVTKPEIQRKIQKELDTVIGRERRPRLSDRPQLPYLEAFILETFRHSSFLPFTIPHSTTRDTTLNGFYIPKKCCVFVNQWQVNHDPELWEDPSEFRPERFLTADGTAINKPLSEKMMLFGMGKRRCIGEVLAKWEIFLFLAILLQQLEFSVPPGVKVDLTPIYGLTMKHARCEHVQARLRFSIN

Chain of Cytochrome P450 2D6 (P10635 whole entry): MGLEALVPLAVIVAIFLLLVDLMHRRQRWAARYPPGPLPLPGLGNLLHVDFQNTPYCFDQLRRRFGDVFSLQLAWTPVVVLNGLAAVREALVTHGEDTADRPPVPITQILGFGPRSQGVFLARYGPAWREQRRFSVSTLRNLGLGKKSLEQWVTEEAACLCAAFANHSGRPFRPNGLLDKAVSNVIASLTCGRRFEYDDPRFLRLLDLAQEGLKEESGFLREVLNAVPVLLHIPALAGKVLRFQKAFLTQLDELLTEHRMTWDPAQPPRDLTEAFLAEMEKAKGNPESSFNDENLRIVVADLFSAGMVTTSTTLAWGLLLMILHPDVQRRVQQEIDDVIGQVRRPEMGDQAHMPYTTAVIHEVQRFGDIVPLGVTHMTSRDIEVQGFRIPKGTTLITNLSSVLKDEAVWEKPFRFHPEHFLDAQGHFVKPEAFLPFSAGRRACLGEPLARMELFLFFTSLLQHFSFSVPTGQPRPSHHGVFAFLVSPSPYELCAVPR
Chain of Intestinal-type alkaline phosphatase (Mus musculus, UniProt P24822) (P24822 whole entry): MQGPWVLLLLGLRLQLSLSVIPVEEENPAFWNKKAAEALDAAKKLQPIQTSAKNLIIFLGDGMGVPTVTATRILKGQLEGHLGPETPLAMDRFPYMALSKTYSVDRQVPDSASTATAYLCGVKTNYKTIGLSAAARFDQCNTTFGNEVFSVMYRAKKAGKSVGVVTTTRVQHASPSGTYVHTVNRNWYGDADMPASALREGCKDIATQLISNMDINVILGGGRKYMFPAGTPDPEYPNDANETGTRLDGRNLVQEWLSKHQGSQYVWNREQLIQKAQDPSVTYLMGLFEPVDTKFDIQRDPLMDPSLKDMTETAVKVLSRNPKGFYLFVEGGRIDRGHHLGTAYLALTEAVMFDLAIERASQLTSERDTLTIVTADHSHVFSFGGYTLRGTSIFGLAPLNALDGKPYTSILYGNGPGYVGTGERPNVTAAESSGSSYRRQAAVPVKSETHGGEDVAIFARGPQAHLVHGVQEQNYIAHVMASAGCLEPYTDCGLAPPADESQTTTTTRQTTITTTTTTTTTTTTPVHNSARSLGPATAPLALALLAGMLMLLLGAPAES
Chain of Phosphomannomutase 2 (O15305 whole entry): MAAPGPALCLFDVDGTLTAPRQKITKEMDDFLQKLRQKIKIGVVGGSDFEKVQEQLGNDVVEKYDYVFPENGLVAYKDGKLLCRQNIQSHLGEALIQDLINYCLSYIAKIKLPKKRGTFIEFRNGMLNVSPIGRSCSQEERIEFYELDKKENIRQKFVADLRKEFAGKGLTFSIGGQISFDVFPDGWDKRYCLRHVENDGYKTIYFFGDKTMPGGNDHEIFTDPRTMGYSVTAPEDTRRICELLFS

With `Cc1ccc(N2C(=O)c3[nH]nc(C)c3C2c2ccccn2)cc1` (configuration not stated), the concentration at half-maximal activity (AC50) result in data set [1] is “inconclusive”.

Regarding `CCCc1ccc2oc(C(=O)N(C)Cc3nccs3)c(C)c2c1`, the values for the AC50 in data set [2] and in [4] were 31.7 µM (active) and > 380 µM (inactive), respectively. Moreover, the CC50 in data set [3] is 21.8 µM (active).

As to `COc1ccc(/C=C2\SC(=O)N(CCNC(=O)C3CC4C=CC3C4)C2=O)cc1` (configuration not stated), the AC50 in data set [2] was 23.7 µM (active); in data set [4], > 380 µM (inactive). Besides, the figures for the EC50 in data set [5] and in data set [6] were > 67.5 µM (inactive) and 0.164 µM (active), respectively.

In the case of `c1ccc2nc(-c3nccs3)ccc2c1`, in [7], the AC50 was 57.5 µM (active).

Turning to `FC(F)Sc1ccc(NC(=S)NC(c2ccccc2)c2ccccc2)cc1`, the IC50 in data set [8] is 0.998 µM (active); in data set [9], > 100 µM (inactive); in data set [10], 41.1 µM (active). Besides, in [11], the EC50 is > 150 µM (not active).

Consider `CCc1nnc(/N=c2\ssnc2Cl)s1`, for which the IC50 is > 100 µM (inactive) in data set [12] and 13.1 µM (active) in data set [13].

On to `O=C(O)[C@@H]1[C@@H](C(=O)O)[C@]23C[C@@]2(C(=O)O)[C@]2(C(=O)O)CCC3=C3CCCC312`, for which the AC50 in data set [14] was 2.51 µM (inconclusive); in data set [1] it was “inconclusive”.
